Values joined by “and” are separate entries in the source; they are usually repeats but may differ in a detail not shown here. Equal entries are not always repeated.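 Each compound was tested at five concentrations against cells in 96-well plates for 48 hours. Here, GI50 denotes the concentration required for 50% inhibition of growth. The concentration for full growth arrest is given as TGI.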

Some test systems named below: OVCAR-3 ovarian; SF-268 CNS; SNB-19 CNS; M14 melanoma; SK-MEL-5 melanoma; U251 CNS; UACC-257 melanoma; MALME-3M melanoma; HOP-92 NSCLC; ACHN renal; MCF7 breast; MDA-MB-435; RXF 393 renal; HS 578T breast; HCC-2998 colon.
Common to all, as to assay: growth of human tumour cells (NCI), 48 h

As for `CC1OC(OC2C(Oc3cc(O)c4c(=O)cc(-c5ccc(O)cc5)oc4c3)OC(CO)C(O)C2O)C(O)C(O)C1O` (centres undefined), the TGI in the assay on OVCAR-3 ovarian, in the assay on SF-268 CNS, in the assay on SNB-19 CNS, with M14 melanoma, in the assay with SK-MEL-5 melanoma and with U251 CNS was above 100 µM in each case. Besides, the TGI in the assay with UACC-257 melanoma, in the assay with MALME-3M melanoma, in the assay on HOP-92 NSCLC and in the assay on ACHN renal was above 100 µM each time.
As for `O=[N+]([O-])c1cccc2nc3ccccc3c(NCCNCCO)c12`, the TGI with MCF7 breast is 0.0373 µM and 0.0177 µM; in the assay on MDA-MB-435, 0.0278 µM and 0.014 µM; in the assay with RXF 393 renal, 0.0205 µM; in the assay with OVCAR-3 ovarian it was 0.0268 µM and 0.0556 µM; with HS 578T breast it was 0.111 µM; in the assay with HCC-2998 colon it was 0.0101 µM. The TGI was 0.0236 µM and 0.0101 µM in the assay with M14 melanoma; 0.00391 µM with SK-MEL-5 melanoma; 0.0467 µM and 0.0298 µM in the assay with U251 CNS; 0.034 µM and 0.0325 µM with UACC-257 melanoma; 0.0216 µM and 0.0317 µM in the assay on MALME-3M melanoma; 0.0237 µM in the assay on HOP-92 NSCLC. The TGI in the assay on ACHN renal is 0.0422 µM and 0.0311 µM. For the same compound, the figures for the GI50 in the assay on OVCAR-3 ovarian, with SNB-19 CNS and in the assay with UACC-257 melanoma were 11.4 nM, 10.2 nM and 12.6 nM, respectively.
Turning to `COc1ccc(S(=O)Cc2cc(OC)ccc2OC)cc1` (centres undefined), the TGI in the assay on MCF7 breast, in the assay with MDA-MB-435, in the assay on RXF 393 renal, in the assay on OVCAR-3 ovarian, in the assay with SF-268 CNS and in the assay with HCC-2998 colon was above 100 µM throughout. For the same compound, the TGI in the assay with SNB-19 CNS, in the assay on M14 melanoma, in the assay on U251 CNS, in the assay on UACC-257 melanoma, with MALME-3M melanoma and in the assay on HOP-92 NSCLC was above 100 µM throughout. Moreover, the TGI with ACHN renal is above 100 µM.
As to `O=C1NC(N/N=C/C(O)C(O)C(O)C(O)CO)=N/C1=C\c1cccs1` (centres undefined), the TGI in the assay with MCF7 breast, in the assay with MDA-MB-435, in the assay on RXF 393 renal, with OVCAR-3 ovarian, in the assay on HS 578T breast and in the assay on SF-268 CNS was above 100 µM each time. In addition, the TGI with HCC-2998 colon, in the assay with SNB-19 CNS, in the assay on M14 melanoma, in the assay with SK-MEL-5 melanoma, in the assay on U251 CNS and with UACC-257 melanoma was above 100 µM throughout. Besides, the TGI in the assay with MALME-3M melanoma, with HOP-92 NSCLC and in the assay on ACHN renal was above 100 µM in each case.
Turning to `Cc1cc2c(cc1Cl)Sc1nnc(C)n1S2(=O)=O`, the TGI in the assay with MCF7 breast was 18.1 µM; with MDA-MB-435 it was 26.6 µM; with RXF 393 renal, 47.4 µM; with OVCAR-3 ovarian, 29.6 µM; in the assay on HS 578T breast it was 79.7 µM; with SF-268 CNS, 42.4 µM. In addition, the TGI is 33.9 µM with HCC-2998 colon; 86.5 µM in the assay with SNB-19 CNS; 30.8 µM with M14 melanoma; 27 µM in the assay on SK-MEL-5 melanoma; 42.8 µM in the assay with U251 CNS; 30.5 µM in the assay with UACC-257 melanoma. The TGI turned out to be 22.8 µM in the assay on MALME-3M melanoma, 24.1 µM in the assay with HOP-92 NSCLC and 27.7 µM with ACHN renal.
For the compound `Cc1[nH]n(-c2nc(O)c(C)c(=O)[nH]2)c(=O)c1CCO`, the TGI in the assay on MCF7 breast was above 100 µM; in the assay with MDA-MB-435, above 100 µM; with RXF 393 renal it was 93.3 µM; in the assay on HS 578T breast, above 100 µM; with SF-268 CNS it was above 100 µM; in the assay with SNB-19 CNS, above 100 µM. Further, the TGI with M14 melanoma, with SK-MEL-5 melanoma, in the assay on U251 CNS, with UACC-257 melanoma, in the assay with MALME-3M melanoma and in the assay with HOP-92 NSCLC was above 100 µM each time. The same compound showed a TGI in the assay with ACHN renal above 100 µM.
`COc1ncc(C#CC(=O)c2ccccc2OC)c(OC)n1`: the TGI with MCF7 breast is 2.91 µM; with MDA-MB-435, 8.44 µM; with RXF 393 renal it was 3.32 µM; in the assay on OVCAR-3 ovarian, 8.27 µM; in the assay with HS 578T breast it was above 32.4 µM; with SF-268 CNS, 12.2 µM. Also, the TGI turned out to be 13 µM in the assay with HCC-2998 colon; 29.3 µM in the assay with SNB-19 CNS; 5.05 µM in the assay on M14 melanoma; 5.85 µM in the assay with SK-MEL-5 melanoma; 8.33 µM in the assay with U251 CNS; 8.79 µM in the assay on UACC-257 melanoma. Moreover, the results for the TGI in the assay with MALME-3M melanoma, in the assay on HOP-92 NSCLC and with ACHN renal were 3.36 µM, 4.47 µM and 3.27 µM, respectively.
Take `COc1cc(/C=C2\CCc3cc(OC)c(OC)cc3C2=O)cc(OC)c1`: the TGI was above 84.3 µM with MCF7 breast; above 100 µM in the assay on MDA-MB-435; above 42.4 µM with RXF 393 renal; above 42 µM in the assay with OVCAR-3 ovarian; above 100 µM in the assay with HS 578T breast; above 100 µM in the assay with SF-268 CNS. The TGI in the assay on HCC-2998 colon is 15 µM; in the assay on SNB-19 CNS it was above 100 µM; with M14 melanoma it was above 100 µM; with SK-MEL-5 melanoma, 18.1 µM; in the assay on U251 CNS, above 100 µM; in the assay with UACC-257 melanoma, above 100 µM. The TGI in the assay with MALME-3M melanoma, in the assay on HOP-92 NSCLC and in the assay with ACHN renal was above 100 µM each time.
Regarding `CC(=O)O/C(=C(/C#N)C(=O)O)C1C(C(=O)O)C(c2ccccc2[N+](=O)[O-])C=C(c2ccco2)N1c1ccncc1` (centres undefined), the TGI amounted to 4.38 µM in the assay with MCF7 breast; 15.7 µM with MDA-MB-435; 8.07 µM in the assay with OVCAR-3 ovarian; 42 µM in the assay with HS 578T breast; 25.2 µM in the assay with SF-268 CNS; 9.45 µM with HCC-2998 colon. Further, the TGI in the assay on SNB-19 CNS was 24.2 µM; in the assay on M14 melanoma, 9.33 µM; with SK-MEL-5 melanoma it was 7.24 µM; in the assay with U251 CNS, 4.89 µM; in the assay with UACC-257 melanoma, 12 µM; in the assay with MALME-3M melanoma, 23 µM. Further, the figures for the TGI in the assay with HOP-92 NSCLC and in the assay on ACHN renal were 35.1 µM and 4.5 µM, respectively.
Take `COc1ccccc1/C=C1/Sc2scc(CC(=O)Nc3ccccc3)[n+]2C1=O`: the TGI in the assay with MCF7 breast is above 100 µM; with MDA-MB-435, above 100 µM; in the assay with RXF 393 renal it was 80.8 µM; with OVCAR-3 ovarian, 43.4 µM; in the assay on HS 578T breast, above 100 µM; in the assay on SF-268 CNS, above 100 µM. For the same compound, the TGI in the assay with HCC-2998 colon is above 100 µM; in the assay with SNB-19 CNS, above 100 µM; in the assay on M14 melanoma, above 100 µM; in the assay on SK-MEL-5 melanoma, 36 µM; in the assay with U251 CNS, above 100 µM; in the assay on UACC-257 melanoma, 80.4 µM. For the same compound, the TGI is 52.3 µM with HOP-92 NSCLC and above 100 µM in the assay with ACHN renal.
Consider `CN(C)CCCNC(=O)CNC(=O)c1cc(NC(=O)c2cc(NC(=O)c3cc(NC(=O)CCNC(=O)c4cc(NC(=O)c5cc(NC(=O)c6nccn6C)cn5C)cn4C)cn3C)cn2C)cn1C`, for which the TGI in the assay with MCF7 breast, with MDA-MB-435, in the assay with OVCAR-3 ovarian, in the assay on HS 578T breast, in the assay with SF-268 CNS and with HCC-2998 colon was above 100 µM in each case. The TGI in the assay with SNB-19 CNS, in the assay on M14 melanoma, in the assay on SK-MEL-5 melanoma, with U251 CNS, with UACC-257 melanoma and in the assay on MALME-3M melanoma was above 100 µM in each case. Moreover, the TGI with HOP-92 NSCLC and in the assay with ACHN renal was above 100 µM in each case.
Regarding `CC1(C)OC[C@@]2([C@@H]3CC[C@@H](C3)C2(C)C)N1O`, the TGI with MCF7 breast, in the assay on MDA-MB-435, in the assay with RXF 393 renal, in the assay on OVCAR-3 ovarian, in the assay on HS 578T breast and with SF-268 CNS was above 100 µM throughout. Moreover, the TGI in the assay on SNB-19 CNS, with M14 melanoma, in the assay on SK-MEL-5 melanoma, in the assay with U251 CNS, in the assay with UACC-257 melanoma and with MALME-3M melanoma was above 100 µM each time. The TGI in the assay on HOP-92 NSCLC and with ACHN renal was above 100 µM throughout.
Consider `CNC(=O)CNC(=O)CCC(=O)N(C)C`, for which the TGI in the assay on MCF7 breast, with MDA-MB-435, with OVCAR-3 ovarian, in the assay on HS 578T breast, in the assay on SF-268 CNS and in the assay with HCC-2998 colon was above 100 µM throughout. The TGI in the assay with SNB-19 CNS, in the assay with M14 melanoma, in the assay on SK-MEL-5 melanoma, in the assay with U251 CNS, in the assay with UACC-257 melanoma and in the assay with MALME-3M melanoma was above 100 µM throughout. The TGI in the assay on HOP-92 NSCLC and with ACHN renal was above 100 µM in each case.
Regarding `CSc1nc(-c2cc3c(c(SC)n2)CCC3)cc2c1CCC2`, the TGI in the assay on MDA-MB-435, in the assay with RXF 393 renal, in the assay with OVCAR-3 ovarian, with SF-268 CNS, in the assay with HCC-2998 colon and in the assay with SNB-19 CNS was above 100 µM in each case. Also, the TGI with M14 melanoma, in the assay with SK-MEL-5 melanoma, in the assay on U251 CNS, in the assay with UACC-257 melanoma and in the assay on ACHN renal was above 100 µM in each case.
Regarding `COc1ccc(/C=N/n2c(C)n[nH]c2=O)cc1`, the TGI in the assay on MCF7 breast, in the assay on MDA-MB-435, in the assay on OVCAR-3 ovarian, in the assay with SF-268 CNS, in the assay on HCC-2998 colon and with SNB-19 CNS was above 100 µM throughout. For the same compound, the TGI in the assay on M14 melanoma, in the assay on U251 CNS, in the assay with UACC-257 melanoma, with MALME-3M melanoma and in the assay on ACHN renal was above 100 µM in each case.
